# Oligonucleotides are written 5' to 3', each unit as a sugar letter and its base; * is a phosphorothioate linkage, no mark a phosphodiester; rarer units and linkages stand in square brackets, end groups in braces. Plain capitals give the bases only. e = 2'-O-(2-methoxyethyl) (MOE); [5mC] = 5-methylcytosine; d = 2'-deoxy (DNA)
# Key:
# Format in all cases: in vivo, mouse
# [1] = system: Sterol O-acyltransferase 2 (Soat2) mRNA; experiment: PCR microarray analysis of liver, LDLr-/- mice: Soat2; conditions: 6 weeks
# Procedure: (§1) Four groups of five male mice each were injected with a total of 1.5, 5, 15, or 50 mg/kg/week of ISIS 447118 for 6 weeks. A group of five mice was injected with a total of 50 mg/kg/week of control oligonucleotide ISIS 141923 ([…], designated herein as SEQ ID NO: 112, which has no known murine target) for 6 weeks. A control group of five mice was injected with phosphate buffered saline (PBS) twice a week for 6 weeks. Plasma samples were obtained before the start of treatment, at week 3 and at week 6. At the end of the treatment period, the mice were euthanized. Plasma and tissue samples were obtained for further analysis.
# (§2) Liver samples from the mice groups were analyzed using a commercial kit for PCR microarray analysis (SA Biosciences Corp., MD), according to the manufacturer's instructions. Genes involved in lipoprotein and cholesterol metabolism were compared with the PBS control.
# Stabilin 1 (Stab1) mRNA = experiment: PCR microarray analysis of liver, LDLr-/- mice: Stab1; conditions: 6 weeks
# Procedure: as §1, §2
# [2] = system: Proprotein convertase subtilisin/kexin type 9 (Pcsk9) mRNA; experiment: PCR microarray analysis of liver, LDLr-/- mice: Pcsk9; conditions: 6 weeks
# Procedure: as §1, §2
# [3] = system: Oxysterol binding protein-like 5 (Osbpl5) mRNA; experiment: PCR microarray analysis of liver, LDLr-/- mice: Osbpl5; conditions: 6 weeks
# Procedure: as §1, §2
# [4] = system: Insulin induced gene 1 (Insig1) mRNA; experiment: PCR microarray analysis of liver, LDLr-/- mice: Insig1; conditions: 6 weeks
# Procedure: as §1, §2
# [5] = system: Farnesyl diphosphate synthetase (Fdps) mRNA; experiment: PCR microarray analysis of liver, LDLr-/- mice: Fdps; conditions: 6 weeks
# Procedure: as §1, §2
# [6] = system: Low density lipoprotein receptor (Ldlr) mRNA; experiment: PCR microarray analysis of liver, LDLr-/- mice: Ldlr; conditions: 6 weeks
# Procedure: as §1, §2
# [7] = system: Mevalonate (diphospho) decarboxylase (Mvd) mRNA; experiment: PCR microarray analysis of liver, LDLr-/- mice: Mvd; conditions: 6 weeks
# Procedure: as §1, §2
# [8] = Plasma cholesterol and triglycerides in LDLr-/- mice
# Procedure: The LDLr knockout mice model is a model for familial hypercholesterolemia developed by Ishibashi et al (J Clin Invest 1993; 92: 883-893). On a normal chow diet, the mice have an average total cholesterol of 250 mg/dL due to increases in LDL and VLDL cholesterol. This model is therefore highly susceptible to atherosclerosis (Ishibashi et al Proc Natl Acad Sci USA 1994; 91: 4431-4435).
# as §1
# To investigate the effect of inhibition of TTC39B on triglycerides and cholesterol levels in the plasma, samples were collected on weeks 0, 3, and 6, and total plasma cholesterol, LDL cholesterol, HDL cholesterol, and triglycerides were analyzed on an Olympus AU400e Analyzer.
# [9] = 1.5 mg/kg/week, Week 0 (before treatment)
# [10] = 5 mg/kg/week, Week 0 (before treatment)
# [11] = 15 mg/kg/week, Week 0 (before treatment)
# [12] = 50 mg/kg/week, Week 0 (before treatment)
sequence,measurement,setting,value
GCAGCTCGATTCGGGCATGA (antisense eG*e[5mC]*eA*eG*e[5mC]*dT*d[5mC]*dG*dA*dT*dT*d[5mC]*dG*dG*dG*e[5mC]*eA*eT*eG*eA) [ISIS 447118],Soat2 fold increase/decrease relative to PBS group,[1]; 1.5 mg/kg,1.05 fold
same,Soat2 fold increase/decrease relative to PBS group,[1]; 5 mg/kg,0.88 fold
same,Soat2 fold increase/decrease relative to PBS group,[1]; 15 mg/kg,1.36 fold
same,Soat2 fold increase/decrease relative to PBS group,[1]; 50 mg/kg,1.79 fold
same,Stab1 fold increase/decrease relative to PBS group,Stabilin 1 (Stab1) mRNA; 1.5 mg/kg,1.15 fold
same,Stab1 fold increase/decrease relative to PBS group,Stabilin 1 (Stab1) mRNA; 5 mg/kg,1.19 fold
same,Stab1 fold increase/decrease relative to PBS group,Stabilin 1 (Stab1) mRNA; 15 mg/kg,1.35 fold
same,Stab1 fold increase/decrease relative to PBS group,Stabilin 1 (Stab1) mRNA; 50 mg/kg,1.53 fold
same,Pcsk9 fold increase/decrease relative to PBS group,[2]; 1.5 mg/kg,0.83 fold
same,Pcsk9 fold increase/decrease relative to PBS group,[2]; 5 mg/kg,0.66 fold
same,Pcsk9 fold increase/decrease relative to PBS group,[2]; 15 mg/kg,0.4 fold
same,Pcsk9 fold increase/decrease relative to PBS group,[2]; 50 mg/kg,0.23 fold
same,Osbpl5 fold increase/decrease relative to PBS group,[3]; 1.5 mg/kg,1.7 fold
same,Osbpl5 fold increase/decrease relative to PBS group,[3]; 5 mg/kg,2.34 fold
same,Osbpl5 fold increase/decrease relative to PBS group,[3]; 15 mg/kg,3.11 fold
same,Osbpl5 fold increase/decrease relative to PBS group,[3]; 50 mg/kg,2.11 fold
same,Insig1 fold increase/decrease relative to PBS group,[4]; 1.5 mg/kg,0.96 fold
same,Insig1 fold increase/decrease relative to PBS group,[4]; 5 mg/kg,0.84 fold
same,Insig1 fold increase/decrease relative to PBS group,[4]; 15 mg/kg,0.68 fold
same,Insig1 fold increase/decrease relative to PBS group,[4]; 50 mg/kg,0.67 fold
same,Fdps fold increase/decrease relative to PBS group,[5]; 1.5 mg/kg,1.03 fold
same,Fdps fold increase/decrease relative to PBS group,[5]; 5 mg/kg,0.84 fold
same,Fdps fold increase/decrease relative to PBS group,[5]; 15 mg/kg,0.8 fold
same,Fdps fold increase/decrease relative to PBS group,[5]; 50 mg/kg,0.66 fold
same,Ldlr fold increase/decrease relative to PBS group,[6]; 1.5 mg/kg,1.43 fold
same,Ldlr fold increase/decrease relative to PBS group,[6]; 5 mg/kg,1.28 fold
same,Ldlr fold increase/decrease relative to PBS group,[6]; 15 mg/kg,1.79 fold
same,Ldlr fold increase/decrease relative to PBS group,[6]; 50 mg/kg,2.87 fold
same,Mvd fold increase/decrease relative to PBS group,[7]; 1.5 mg/kg,0.81 fold
same,Mvd fold increase/decrease relative to PBS group,[7]; 5 mg/kg,0.7 fold
same,Mvd fold increase/decrease relative to PBS group,[7]; 15 mg/kg,0.56 fold
same,Mvd fold increase/decrease relative to PBS group,[7]; 50 mg/kg,0.67 fold
same,HDL cholesterol % increase on week 6 (% change over baseline),[8]; 1.5 mg/kg/week,36%
same,HDL cholesterol levels,[8]; [9],75 mg/dL
same,LDL cholesterol levels,[8]; [9],115 mg/dL
same,total cholesterol levels,[8]; [9],227 mg/dL
same,triglyceride levels,[8]; [9],126 mg/dL
same,HDL cholesterol levels,"[8]; 1.5 mg/kg/week, Week 3",71 mg/dL
same,LDL cholesterol levels,"[8]; 1.5 mg/kg/week, Week 3",116 mg/dL
same,total cholesterol levels,"[8]; 1.5 mg/kg/week, Week 3",217 mg/dL
same,triglyceride levels,"[8]; 1.5 mg/kg/week, Week 3",107 mg/dL
same,HDL cholesterol levels,"[8]; 1.5 mg/kg/week, Week 6",101 mg/dL
same,LDL cholesterol levels,"[8]; 1.5 mg/kg/week, Week 6",131 mg/dL
same,total cholesterol levels,"[8]; 1.5 mg/kg/week, Week 6",247 mg/dL
same,triglyceride levels,"[8]; 1.5 mg/kg/week, Week 6",142 mg/dL
same,HDL cholesterol % increase on week 6 (% change over baseline),[8]; 5 mg/kg/week,28%
same,HDL cholesterol levels,[8]; [10],88 mg/dL
same,LDL cholesterol levels,[8]; [10],112 mg/dL
same,total cholesterol levels,[8]; [10],234 mg/dL
same,triglyceride levels,[8]; [10],118 mg/dL
same,HDL cholesterol levels,"[8]; 5 mg/kg/week, Week 3",83 mg/dL
same,LDL cholesterol levels,"[8]; 5 mg/kg/week, Week 3",120 mg/dL
same,total cholesterol levels,"[8]; 5 mg/kg/week, Week 3",232 mg/dL
same,triglyceride levels,"[8]; 5 mg/kg/week, Week 3",122 mg/dL
same,HDL cholesterol levels,"[8]; 5 mg/kg/week, Week 6",112 mg/dL
same,LDL cholesterol levels,"[8]; 5 mg/kg/week, Week 6",130 mg/dL
same,total cholesterol levels,"[8]; 5 mg/kg/week, Week 6",261 mg/dL
same,triglyceride levels,"[8]; 5 mg/kg/week, Week 6",149 mg/dL
same,HDL cholesterol % increase on week 6 (% change over baseline),[8]; 15 mg/kg/week,45%
same,HDL cholesterol levels,[8]; [11],84 mg/dL
same,LDL cholesterol levels,[8]; [11],122 mg/dL
same,total cholesterol levels,[8]; [11],239 mg/dL
same,triglyceride levels,[8]; [11],120 mg/dL
same,HDL cholesterol levels,"[8]; 15 mg/kg/week, Week 3",82 mg/dL
same,LDL cholesterol levels,"[8]; 15 mg/kg/week, Week 3",133 mg/dL
same,total cholesterol levels,"[8]; 15 mg/kg/week, Week 3",249 mg/dL
same,triglyceride levels,"[8]; 15 mg/kg/week, Week 3",126 mg/dL
same,HDL cholesterol levels,"[8]; 15 mg/kg/week, Week 6",122 mg/dL
same,LDL cholesterol levels,"[8]; 15 mg/kg/week, Week 6",158 mg/dL
same,total cholesterol levels,"[8]; 15 mg/kg/week, Week 6",294 mg/dL
same,triglyceride levels,"[8]; 15 mg/kg/week, Week 6",131 mg/dL
same,HDL cholesterol % increase on week 6 (% change over baseline),[8]; 50 mg/kg/week,58%
same,HDL cholesterol levels,[8]; [12],78 mg/dL
same,LDL cholesterol levels,[8]; [12],99 mg/dL
same,total cholesterol levels,[8]; [12],207 mg/dL
same,triglyceride levels,[8]; [12],98 mg/dL
same,HDL cholesterol levels,"[8]; 50 mg/kg/week, Week 3",85 mg/dL
same,LDL cholesterol levels,"[8]; 50 mg/kg/week, Week 3",111 mg/dL
same,total cholesterol levels,"[8]; 50 mg/kg/week, Week 3",224 mg/dL
same,triglyceride levels,"[8]; 50 mg/kg/week, Week 3",96 mg/dL
same,HDL cholesterol levels,"[8]; 50 mg/kg/week, Week 6",124 mg/dL
same,LDL cholesterol levels,"[8]; 50 mg/kg/week, Week 6",146 mg/dL
same,total cholesterol levels,"[8]; 50 mg/kg/week, Week 6",282 mg/dL
same,triglyceride levels,"[8]; 50 mg/kg/week, Week 6",115 mg/dL

# From patent publication US20120270929A1, “MODULATION OF TTC39 EXPRESSION TO INCREASE HDL” (ISIS Pharmaceuticals, Inc., priority 2009, published 2012)
